Data on 31 molecules can be found in patent US11964973B2 (priority 2019, dated 2024).

pEC50: −log10 of the molar value.

For the first assay, the system named is Human venous whole blood (IFN-γ). The assay can be described thus: Human whole blood IFN-γ assay. The format is cell-based. The note with it: Homo sapiens, 24 h, human whole blood, anti-CD3 plus anti-CD28, 24 hours; read-out: INFg Whole Blood Normalized Agonist EC50. Here is the method: Assay 10: Human Whole Blood IFN-γ Assay
Human venous whole blood (22.5 μL per well), obtained from healthy donors, was pre-treated with compounds for one hour at 37° C. in a humidified 95% air/5% CO2 incubator. The blood was stimulated with 2.5 μL anti-human CD3 and anti-CD28 mAb at a final concentration of 1 μg/mL each for 24 hours at 37° C. IFN-γ in the supernatants was measured using AlphLISA kit (Cat #AL217).
As to `CC[C@@H]1CN(c2cc(=O)n(C)c3ccc(C#N)nc23)CC[C@H]1Oc1ccc(C(C)(C)CC)cc1` (racemic) [Example 149, 8-((3R,4R)-3-ethyl-4-(4-(tert-pentyl)phenoxy)piperidin-1-yl)-5-methyl-6-oxo-5,6-dihydro-1,5-naphthyridine-2-carbonitrile], the pEC50 was 5.85.

As to `C[C@@H]1CN(c2cc(=O)n(C)c3ccc(C#N)nc23)CC[C@H]1Oc1ccc(OC(F)(F)F)cc1` (single isomer, unassigned) [Example 80, 6-cyano-1-methyl-4-(trans-3-methyl-4-(4-(trifluoromethoxy)phenoxy)piperidin-1-yl)-1,5-naphthyridin-2(1H)-one (rel)], the pEC50 was 5.62.

As to `C[C@@H]1CN(c2cc(=O)n(C)c3ccc(C#N)nc23)CC[C@H]1Oc1ccc(OC(F)(F)F)cc1` (racemic) [Example 79, (+/−) 6-cyano-1-methyl-4-(trans-3-methyl-4-(4-(trifluoromethoxy)phenoxy)piperidin-1-yl)-1,5-naphthyridin-2(1H)-one], the pEC50 is 5.66.

On to `CC[C@@H]1CN(c2cc(=O)n(C)c3ccc(C#N)nc23)CC[C@H]1Oc1ccc(C(C)(C)CC)cc1` (single isomer, unassigned) [Example 150], for which the pEC50 was 5.85.

`C[C@@H]1CN(c2cc(=O)n(C)c3ccc(C#N)nc23)CC[C@H]1Oc1ccc(C2CC2)cc1` (racemic) [Example 111, 8-((3R,4R)-4-(4-cyclopropylphenoxy)-3-methylpiperidin-1-yl)-5-methyl-6-oxo-5,6-dihydro-1,5-naphthyridine-2-carbonitrile]: the pEC50 is 5.48.

For `C[C@@H]1CN(c2cc(=O)n(C)c3ccc(C#N)nc23)CC[C@H]1Oc1c(F)cccc1C(F)(F)F` (racemic) [Example 124, 8-((3R,4R)-4-(2-fluoro-6-(trifluoromethyl)phenoxy)-3-methylpiperidin-1-yl)-5-methyl-6-oxo-5,6-dihydro-1,5-naphthyridine-2-carbonitrile], the pEC50 is 4.70.

Take `CC[C@@H]1CN(c2cc(=O)n(C)c3ccc(C#N)nc23)CC[C@H]1Oc1cccc(C2CC2)c1` [Example 156, 8-((3R,4R)-4-(3-cyclopropylphenoxy)-3-ethylpiperidin-1-yl)-5-methyl-6-oxo-5,6-dihydro-1,5-naphthyridine-2-carbonitrile]: the pEC50 is 5.74.

In the case of `CC[C@@H]1CN(c2cc(=O)n(C)c3ccc(C#N)nc23)CC[C@H]1Oc1ccc(C(C)(C)C)cc1` (racemic) [Example 152, 8-((3R,4R)-4-(4-(tert-butyl)phenoxy)-3-ethylpiperidin-1-yl)-5-methyl-6-oxo-5,6-dihydro-1,5-naphthyridine-2-carbonitrile], the pEC50 is 5.82.

As to `C[C@@H]1CN(c2cc(=O)n(C)c3ccc(C#N)nc23)CC[C@H]1Oc1ccc(F)cc1F` (racemic) [Example 113, 8-((3R,4R)-4-(2,4-difluorophenoxy)-3-methylpiperidin-1-yl)-5-methyl-6-oxo-5,6-dihydro-1,5-naphthyridine-2-carbonitrile], the pEC50 is 5.39.

For the molecule `C[C@@H]1CN(c2cc(=O)n(C)c3ccc(C#N)nc23)CC[C@H]1Oc1c(F)cccc1F` (single isomer, unassigned) [Example 126], the pEC50 was 4.70.

As for `C[C@@H]1CN(c2cc(=O)n(C)c3ccc(C#N)nc23)CC[C@H]1Oc1c(F)cccc1F` [Example 125, 8-((3R,4R)-4-(2,6-difluorophenoxy)-3-methylpiperidin-1-yl)-5-methyl-6-oxo-5,6-dihydro-1,5-naphthyridine-2-carbonitrile], the pEC50 is 4.70.

The same assay, now with this note: Homo sapiens, human whole blood IFN-γ; read-out: INFg Whole Blood.
Consider `CC(C)c1ccnc(O[C@H]2CCN(c3cc(=O)n(C)c4ccc(C#N)nc34)C[C@H]2C)c1` [Example 211, 8-((3R,4S)-4-((4-isopropylpyridin-2-yl)oxy)-3-methylpiperidin-1-yl)-5-methyl-6-oxo-5,6-dihydro-1,5-naphthyridine-2-carbonitrile], for which the pEC50 is 5.41.

In the case of `CC(C)Oc1ccc(O[C@@H]2CCN(c3cc(=O)n(C)c4ccc(C#N)nc34)C[C@H]2C)nc1` (mixture of isomers) [Example 199, 8-((3R,4R)-4-((5-isopropoxypyridin-2-yl)oxy)-3-methylpiperidin-1-yl)-5-methyl-6-oxo-5,6-dihydro-1,5-naphthyridine-2-carbonitrile], the pEC50 is 5.68.

Regarding `C[C@@H]1CN(c2cc(=O)n(C)c3ccc(C#N)nc23)CC[C@@H]1Oc1ccc(C(F)F)cn1` [Example 208, 8-((3R,4S)-4-((5-(difluoromethyl)pyridin-2-yl)oxy)-3-methylpiperidin-1-yl)-5-methyl-6-oxo-5,6-dihydro-1,5-naphthyridine-2-carbonitrile], the pEC50 is 5.68.

Regarding `C[C@@H]1CN(c2cc(=O)n(C)c3ccc(C(N)=O)nc23)CC[C@@H]1OCc1ccc(OC(F)(F)F)cc1` (racemic) [Example 236, (+/−) 5-methyl-8-(cis-3-methyl-4-((4-(trifluoromethoxy)benzyl)oxy)piperidin-1-yl)-6-oxo-5,6-dihydro-1,5-naphthyridine-2-carboxamide], the pEC50 is 4.70.

On to `CC(C)c1cccc(O[C@H]2CCN(c3cc(=O)n(C)c4ccc(C#N)nc34)C[C@H]2C)n1` [Example 214, 8-((3R,4S)-4-((6-isopropylpyridin-2-yl)oxy)-3-methylpiperidin-1-yl)-5-methyl-6-oxo-5,6-dihydro-1,5-naphthyridine-2-carbonitrile], for which the pEC50 is 5.30.

As for `CCCc1cc(O[C@@H]2CCN(c3cc(=O)n(C)c4ccc(C#N)nc34)C[C@H]2CC)ccc1F` [Example 195, 8-((3R,4R)-3-ethyl-4-(4-fluoro-3-propylphenoxy)piperidin-1-yl)-5-methyl-6-oxo-5,6-dihydro-1,5-naphthyridine-2-carbonitrile], the pEC50 was 6.48.

As to `CC(C)c1ccc(O[C@H]2CCN(c3cc(=O)n(C)c4ccc(C#N)nc34)C[C@H]2C)nc1` [Example 205, 8-((3R,4S)-4-((5-isopropylpyridin-2-yl)oxy)-3-methylpiperidin-1-yl)-5-methyl-6-oxo-5,6-dihydro-1,5-naphthyridine-2-carbonitrile], the pEC50 is 6.43.

For the molecule `C[C@@H]1CN(c2cc(=O)n(C)c3ccc(C#N)nc23)CC[C@@H]1OCc1ccc(OC(F)(F)F)cc1` (racemic) [Example 235, (+/−) 5-methyl-8-(cis-3-methyl-4-((4-(trifluoromethoxy)benzyl)oxy)piperidin-1-yl)-6-oxo-5,6-dihydro-1,5-naphthyridine-2-carbonitrile], the pEC50 is 5.28.

Consider `C[C@@H]1CN(c2cc(=O)n(C)c3ccc(C#N)nc23)CC[C@@H]1Oc1ccc(C(F)(F)F)cn1` (single isomer, unassigned) [Example 226], for which the pEC50 was 5.62.

For `C[C@@H]1CN(c2c(C#N)c(=O)n(C)c3ccc(C#N)nc23)CC[C@@H]1Oc1ccc(C(F)(F)F)cc1` [Example 189, 5-methyl-8-((3R,4S)-3-methyl-4-(4-(trifluoromethyl)phenoxy)piperidin-1-yl)-6-oxo-5,6-dihydro-1,5-naphthyridine-2,7-dicarbonitrile], the pEC50 was 4.70.

Still in this assay, the particulars now being: Homo sapiens, read-out: INFg Whole Blood, human whole blood IFN-γ.
Take `CC[C@@H]1CN(c2cc(=O)n(C)c3ccc(C#N)nc23)CC[C@@H]1Oc1ccc(OC(C)C)cn1` [Example 202, 8-((3R,4S)-3-ethyl-4-((5-isopropoxypyridin-2-yl)oxy)piperidin-1-yl)-5-methyl-6-oxo-5,6-dihydro-1,5-naphthyridine-2-carbonitrile]: the pEC50 is 5.70.

The same assay, now with this note: human whole blood IFN-γ; read-out: INFg Whole Blood.
Turning to `CO[C@@H]1CN(c2nc(=O)n(C)c3ccc(C#N)nc23)CC[C@H]1Oc1cccc(C(F)(F)F)c1` (racemic) [Example 277], the pEC50 was 5.35.

Consider `CC(C)Oc1ccc(OC2CCN(c3cc(=O)n(C)c4ccc(C#N)nc34)CC2(C)C)nc1` (single isomer, unassigned) [Example 234, 8-(4-((5-isopropoxypyridin-2-yl)oxy)-3,3-dimethylpiperidin-1-yl)-5-methyl-6-oxo-5,6-dihydro-1,5-naphthyridine-2-carbonitrile (rel)], for which the pEC50 is 5.03.

Consider `C[C@@H]1CN(c2cc(=O)n(C)c3ccc(C#N)nc23)CC[C@@H]1Oc1ccc(C(F)(F)F)cn1` (single isomer, unassigned) [Example 227], for which the pEC50 is 5.38.

The assay is the same for the next values; noted with them: human whole blood, anti-CD3 plus anti-CD28, 24 hours; read-out: INFg Whole Blood Normalized Agonist EC50.
Regarding `C[C@@H]1CN(c2cc(=O)n(C)c3ccc(C#N)nc23)CC[C@H]1Oc1c(F)cccc1F` (single isomer, unassigned) [Example 127], the pEC50 was 4.70.

For `C[C@@H]1CN(c2cc(=O)n(C)c3ccc(C#N)nc23)CC[C@H]1Oc1ccc(C(F)(F)F)cc1` (single isomer, unassigned) [Example 98], the pEC50 is 5.92.

As to `CC[C@@H]1CN(c2cc(=O)n(C)c3ccc(C#N)nc23)CC[C@H]1Oc1ccc(C(C)C)cc1` (single isomer, unassigned) [Example 145], the pEC50 is 5.11.

On to `CC[C@@H]1CN(c2cc(=O)n(C)c3ccc(C#N)nc23)CC[C@H]1Oc1ccc(C(C)(C)C)cc1` (single isomer, unassigned) [Example 153], for which the pEC50 is 5.77.

Staying with this assay, now noted: read-out: INFg Whole Blood; human whole blood IFN-γ.
For the molecule `CCO[C@@H]1CN(c2nc(=O)n(C)c3ccc(C#N)nc23)CC[C@H]1Oc1cccc(C(F)(F)F)c1` [Example 278, 4-((3R,4R)-3-ethoxy-4-(3-(trifluoromethyl)phenoxy)piperidin-1-yl)-1-methyl-2-oxo-1,2-dihydropyrido[3,2-d]pyrimidine-6-carbonitrile], the pEC50 is 6.19.

For `CCO[C@@H]1CN(c2nc(=O)n(C)c3ccc(C#N)nc23)CC[C@H]1Oc1cccc(C(F)(F)F)c1` [Example 279, 4-((3R,4R)-3-ethoxy-4-(3-(trifluoromethyl)phenoxy)piperidin-1-yl)-1-methyl-2-oxo-1,2-dihydropyrido[3,2-d]pyrimidine-6-carbonitrile], the pEC50 was 5.06.
